Data on ten molecules can be found in patent publication US10035771B2 (priority 2013, dated 2018).

The target in assay [1] is type A botulinum toxin (BoNT/A) (Clostridium botulinum, UniProt P0DPI1). Details: species or system Balb/c mice. Particulars: mouse, in vivo, ip.
The target in assay [2] is type B botulinum toxin (BoNT/B) (Clostridium botulinum, UniProt P10844). Details: species or system Balb/c mice. As to conditions: mouse, in vivo, ip.
The target in assay [3] is type B botulinum toxin light chain (BoNT/B-LC) (Clostridium botulinum, UniProt P10844). Put plainly: biochemical. Particulars: for inhibition at 100 µg/mL: read-out: Inhibition rate %.
For assay [4], the target named is type E botulinum toxin light chain (BoNT/E-LC) (Clostridium botulinum, UniProt Q00496). The assay can be described thus: biochemical. As to conditions: for inhibition at 100 µg/mL: read-out: Inhibition rate %.
In assay [5] the target is type A botulinum toxin light chain (BoNT/A-LC) (Clostridium botulinum, UniProt P0DPI1). Put plainly: biochemical. As to conditions: for inhibition at 100 µg/mL: read-out: Inhibition rate %.
The target of another assay is BoNT/F-LC (Clostridium botulinum, UniProt A7GBG3). Put plainly: biochemical. As to conditions: for inhibition at 100 µg/mL: read-out: Inhibition rate %.
For assay [6], the target named is tetanus toxin light chain (TeNt-LC) (Clostridium tetani, UniProt P04958). Put plainly: biochemical. Particulars: for inhibition at 200 µg/mL: read-out: Inhibition rate %.
The target of assay [7] is light chain of type A botulinum toxin (Clostridium botulinum, UniProt P0DPI1). As to conditions: read-out: Ki value; cited from earlier work.

Sequence of BoNT/F-LC (A7GBG3 1-436 limits assumed): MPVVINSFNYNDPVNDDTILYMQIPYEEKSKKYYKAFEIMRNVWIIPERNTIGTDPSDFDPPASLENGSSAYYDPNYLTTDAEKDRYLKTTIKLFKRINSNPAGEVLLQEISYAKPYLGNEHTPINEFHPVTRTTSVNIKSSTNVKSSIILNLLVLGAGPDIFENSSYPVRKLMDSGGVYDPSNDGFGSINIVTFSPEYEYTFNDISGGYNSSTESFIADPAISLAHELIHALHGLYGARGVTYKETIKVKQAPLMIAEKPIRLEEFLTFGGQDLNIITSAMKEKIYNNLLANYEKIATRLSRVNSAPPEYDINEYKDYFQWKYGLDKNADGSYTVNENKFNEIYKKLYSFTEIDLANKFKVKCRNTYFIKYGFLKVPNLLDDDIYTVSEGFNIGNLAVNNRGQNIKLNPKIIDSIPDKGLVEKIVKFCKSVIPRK
Sequence of type E botulinum toxin light chain (BoNT/E-LC) (Q00496 2-422 limits assumed): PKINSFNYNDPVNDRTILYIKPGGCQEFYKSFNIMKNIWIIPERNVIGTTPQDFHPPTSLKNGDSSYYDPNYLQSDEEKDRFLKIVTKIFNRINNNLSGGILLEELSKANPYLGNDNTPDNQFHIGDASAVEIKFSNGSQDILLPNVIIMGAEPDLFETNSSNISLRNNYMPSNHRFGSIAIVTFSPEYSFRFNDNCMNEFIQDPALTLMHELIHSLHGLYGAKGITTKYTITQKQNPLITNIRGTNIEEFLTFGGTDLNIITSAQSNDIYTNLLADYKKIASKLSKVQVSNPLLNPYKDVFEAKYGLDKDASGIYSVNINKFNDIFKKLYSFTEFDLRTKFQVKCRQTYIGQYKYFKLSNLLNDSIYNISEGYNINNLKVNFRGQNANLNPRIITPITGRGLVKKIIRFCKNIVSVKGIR
Sequence of type B botulinum toxin light chain (BoNT/B-LC) (P10844 2-441 limits assumed): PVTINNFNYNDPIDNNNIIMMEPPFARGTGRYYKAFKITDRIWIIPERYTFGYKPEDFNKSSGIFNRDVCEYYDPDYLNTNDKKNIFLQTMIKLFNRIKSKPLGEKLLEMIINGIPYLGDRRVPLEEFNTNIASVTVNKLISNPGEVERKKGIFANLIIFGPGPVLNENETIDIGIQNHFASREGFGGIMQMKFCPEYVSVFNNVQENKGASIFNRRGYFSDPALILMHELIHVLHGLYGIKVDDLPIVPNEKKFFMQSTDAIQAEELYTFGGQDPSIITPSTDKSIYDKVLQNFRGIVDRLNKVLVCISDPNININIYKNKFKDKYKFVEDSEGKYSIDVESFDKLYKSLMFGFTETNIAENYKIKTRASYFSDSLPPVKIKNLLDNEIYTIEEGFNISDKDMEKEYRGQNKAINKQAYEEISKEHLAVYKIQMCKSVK
Sequence of type B botulinum toxin (BoNT/B) (P10844 2-441 limits assumed): as above
Sequence of type B botulinum toxin (BoNT/B) (P10844 442-1291 limits assumed): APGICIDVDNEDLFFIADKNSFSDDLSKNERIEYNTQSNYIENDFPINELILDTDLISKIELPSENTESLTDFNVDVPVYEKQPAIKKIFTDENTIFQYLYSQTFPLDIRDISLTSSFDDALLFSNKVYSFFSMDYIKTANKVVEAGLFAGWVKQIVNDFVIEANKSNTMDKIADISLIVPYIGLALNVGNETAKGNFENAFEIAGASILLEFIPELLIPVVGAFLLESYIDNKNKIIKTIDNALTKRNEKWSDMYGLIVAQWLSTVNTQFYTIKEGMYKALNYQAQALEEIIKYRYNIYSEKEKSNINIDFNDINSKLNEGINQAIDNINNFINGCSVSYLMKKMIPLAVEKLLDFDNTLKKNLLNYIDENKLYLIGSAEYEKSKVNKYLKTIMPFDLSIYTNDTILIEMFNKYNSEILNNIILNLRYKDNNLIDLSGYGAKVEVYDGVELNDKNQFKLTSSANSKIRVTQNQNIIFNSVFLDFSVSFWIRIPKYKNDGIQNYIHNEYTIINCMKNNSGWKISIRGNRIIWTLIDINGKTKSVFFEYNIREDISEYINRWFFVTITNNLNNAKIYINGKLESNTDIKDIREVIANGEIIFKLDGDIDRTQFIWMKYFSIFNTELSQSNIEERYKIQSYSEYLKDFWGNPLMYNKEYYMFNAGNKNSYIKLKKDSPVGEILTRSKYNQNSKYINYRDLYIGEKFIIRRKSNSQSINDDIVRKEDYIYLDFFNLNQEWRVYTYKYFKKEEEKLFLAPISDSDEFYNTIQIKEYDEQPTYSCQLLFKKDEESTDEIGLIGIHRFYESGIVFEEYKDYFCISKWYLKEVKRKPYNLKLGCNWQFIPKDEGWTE
Sequence of tetanus toxin light chain (TeNt-LC) (P04958 2-457 limits assumed): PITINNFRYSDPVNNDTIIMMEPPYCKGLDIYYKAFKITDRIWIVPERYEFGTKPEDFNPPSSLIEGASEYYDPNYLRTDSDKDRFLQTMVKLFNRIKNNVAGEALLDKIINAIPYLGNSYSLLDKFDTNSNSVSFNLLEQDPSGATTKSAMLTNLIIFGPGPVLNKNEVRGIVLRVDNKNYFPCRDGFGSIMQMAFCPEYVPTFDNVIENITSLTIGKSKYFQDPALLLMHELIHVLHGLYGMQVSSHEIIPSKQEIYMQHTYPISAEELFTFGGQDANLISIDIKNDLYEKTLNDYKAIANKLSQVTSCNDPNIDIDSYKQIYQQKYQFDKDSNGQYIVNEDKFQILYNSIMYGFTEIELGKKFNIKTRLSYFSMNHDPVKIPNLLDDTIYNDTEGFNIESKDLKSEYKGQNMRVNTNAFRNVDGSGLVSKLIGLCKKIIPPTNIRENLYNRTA
Sequence of type A botulinum toxin light chain (BoNT/A-LC) (P0DPI1 2-448 limits assumed): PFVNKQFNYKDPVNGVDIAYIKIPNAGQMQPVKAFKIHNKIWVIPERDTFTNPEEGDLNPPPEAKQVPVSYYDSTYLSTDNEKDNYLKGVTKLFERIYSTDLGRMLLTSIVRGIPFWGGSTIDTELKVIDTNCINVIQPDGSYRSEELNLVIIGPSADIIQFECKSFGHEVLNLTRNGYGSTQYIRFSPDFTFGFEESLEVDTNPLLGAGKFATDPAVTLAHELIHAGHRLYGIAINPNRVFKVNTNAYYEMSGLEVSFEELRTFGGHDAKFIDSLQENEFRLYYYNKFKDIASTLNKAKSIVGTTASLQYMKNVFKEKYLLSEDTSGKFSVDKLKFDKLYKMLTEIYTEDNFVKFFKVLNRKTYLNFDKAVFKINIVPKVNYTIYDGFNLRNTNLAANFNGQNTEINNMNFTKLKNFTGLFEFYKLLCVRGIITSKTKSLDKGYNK
Sequence of type A botulinum toxin (BoNT/A) (P0DPI1 2-448 limits assumed): as above
Sequence of type A botulinum toxin (BoNT/A) (P0DPI1 449-1296 limits assumed): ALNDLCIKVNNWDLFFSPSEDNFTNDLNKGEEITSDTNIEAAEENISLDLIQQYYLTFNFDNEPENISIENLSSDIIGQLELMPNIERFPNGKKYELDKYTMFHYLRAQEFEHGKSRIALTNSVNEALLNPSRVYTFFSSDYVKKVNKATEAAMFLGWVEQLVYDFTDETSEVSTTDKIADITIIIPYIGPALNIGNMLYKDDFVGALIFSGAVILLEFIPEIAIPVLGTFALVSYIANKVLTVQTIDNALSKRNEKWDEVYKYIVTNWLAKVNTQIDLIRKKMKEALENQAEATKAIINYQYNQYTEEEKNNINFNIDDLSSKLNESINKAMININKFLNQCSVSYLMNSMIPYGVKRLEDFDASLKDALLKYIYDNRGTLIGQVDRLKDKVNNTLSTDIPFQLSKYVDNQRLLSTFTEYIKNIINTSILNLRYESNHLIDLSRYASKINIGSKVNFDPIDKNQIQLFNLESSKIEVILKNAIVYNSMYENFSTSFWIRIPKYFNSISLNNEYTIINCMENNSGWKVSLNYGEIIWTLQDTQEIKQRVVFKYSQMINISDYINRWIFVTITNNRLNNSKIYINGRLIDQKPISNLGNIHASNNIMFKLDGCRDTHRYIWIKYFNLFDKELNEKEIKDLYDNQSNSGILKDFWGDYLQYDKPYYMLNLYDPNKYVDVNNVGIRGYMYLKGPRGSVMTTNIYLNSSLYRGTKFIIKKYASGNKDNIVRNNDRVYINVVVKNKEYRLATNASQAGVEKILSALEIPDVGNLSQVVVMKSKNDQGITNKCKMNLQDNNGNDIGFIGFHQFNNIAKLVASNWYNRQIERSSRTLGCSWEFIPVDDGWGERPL

For the molecule `COc1ccc(Cl)cc1NC(=O)CSc1ncccc1C(=O)[O-].[K+]` [Example 3], the “% survival” value in assay [1] is reported as 40%; in assay [2], 60%. Besides, the Inhibition rate % in assay [3] was found to be 30.2%; in assay [4], 16.5%; in assay [5], 11.3%; at BoNT/F-LC it was 19.2%; in assay [6] it was 20.2%.
For `COc1ccc(Cl)c(NC(=O)CSc2ncccc2C(=O)[O-])c1.[K+]` [Example 14], in assay [1], the “% survival” value was determined as 20%.
One may read the inhibition as the percentage by which the read-out fell short of the control. On to `O=C(CSc1ncccc1C(=O)[O-])Nc1cc(F)ccc1Cl.[K+]` [Example 18, 2-(2-(5-fluoro-2-chlorophenyl)-2-acetylthio)nicotinate potassium], for which the “% survival” value was determined as 0% in assay [1] and 40% in assay [2]. The inhibition at 100 µg/mL stood at 30.2% in assay [3], 17.2% in assay [4], 11.4% in assay [5] and 16.2% at BoNT/F-LC. Besides, in assay [6], the inhibition at 200 µg/mL stood at 19.3%.
As for `O=C(CSc1ncccc1C(=O)[O-])Nc1ccc(OC(F)(F)F)cc1.[K+]` [Example 21], the “% survival” value in assay [1] and in assay [2] was 40% in each case.
As for `COc1cc(Cl)cc(NCC(=O)Sc2ncccc2C(=O)[O-])c1.[Na+]` [Example 4, 2-(2-(3-chloro-5-methoxyanilino)acetylthio)nicotinate sodium], the “% survival” value in assay [1] and in assay [2] was 100% in each case. For the same molecule, the inhibition at 100 µg/mL in assay [3] was 95.5%; in assay [4], 43.2%; in assay [5], 45.4%; on BoNT/F-LC it was 48.6%. In addition, in assay [6], the inhibition at 200 µg/mL was found to be 34.5%.
Turning to `COc1ccc(Cl)cc1NC(=O)CSc1cc(C(=O)[O-])ccn1.[K+]` [Example 15], the “% survival” value in assay [1] came out at 80%.
One may read the Ki as a measure of affinity in units of concentration, obtained from inhibition or displacement. As to `COC(=O)c1ccc(O)c2nc3c(C=O)c(O)cc(O)c3nc12` [lomofungin], in assay [7], the Ki is 6.7 ± 0.7 µM.
For `O=C(CSc1ncccc1C(=O)[O-])Nc1ccccc1Cl.[K+]` [Example 8], the results for the “% survival” value in assay [1] and in assay [2] were 80% and 0%, respectively.
Regarding `COc1ccc(Cl)cc1NCC(=O)Sc1ncccc1C(=O)[O-].[Na+]` [Example 1, 2-(2-(5-chloro-2-methoxyanilino)acetylthio)nicotinate sodium], the “% survival” value in assay [2] is recorded as 40%. Moreover, the inhibition at 100 µg/mL was determined as 27.8% in assay [3], 7.32% in assay [4], 8.4% in assay [5] and 12.2% at BoNT/F-LC. Moreover, the inhibition at 200 µg/mL in assay [6] turned out to be 12.8%.
With `O=C(CSc1ncccc1C(=O)[O-])Nc1cc(Cl)ccc1OCc1ccccc1.[K+]` [Example 23], the “% survival” value was 100% in assay [1] and 80% in assay [2].
